Test system: Hepatocyte
Settings: rat, hepatocytes, 10 min, 5 µM

For `O=C(O)C[C@H](O)C[C@H](O)/C=C/c1c(C2CC2)nc2ccccc2c1-c1ccc(F)cc1` [PITAVASTATIN], the CLb was 52%.
